# pKi: −log10 of the molar value. Where two headings read alike, the source gives them in different places.
# Experiments:
# Histamine H1 receptor = target: T1, Histamine H1 receptor (Cavia porcellus, UniProt P31389); test: Affinity to Histamine H1 receptor in guinea-pig cerebellum; format: binding; conditions: read-out: Receptor Affinity (pKi) Histamine H1 (converted)
# T1 construct: from tissue; host or cells: guinea-pig cerebellum
# human recombinant 5-HT2A = human recombinant 5-HT2A (Homo sapiens, UniProt P28223); test: Receptor affinity at 5-HT2A (Table 1; only a FLIPR calcium method is described); format: binding; conditions: read-out: Receptor Affinity (pKi) 5-HT2A (converted)
# human recombinant 5-HT2C = target: T2, human recombinant 5-HT2C (Homo sapiens, UniProt P28335); test: Receptor affinity at 5-HT2C (Table 1; only a FLIPR calcium method is described); format: binding; conditions: for Ki: read-out: Receptor Affinity (pKi) 5-Ht2C (converted)
# T2 sequence (P28335 33-458): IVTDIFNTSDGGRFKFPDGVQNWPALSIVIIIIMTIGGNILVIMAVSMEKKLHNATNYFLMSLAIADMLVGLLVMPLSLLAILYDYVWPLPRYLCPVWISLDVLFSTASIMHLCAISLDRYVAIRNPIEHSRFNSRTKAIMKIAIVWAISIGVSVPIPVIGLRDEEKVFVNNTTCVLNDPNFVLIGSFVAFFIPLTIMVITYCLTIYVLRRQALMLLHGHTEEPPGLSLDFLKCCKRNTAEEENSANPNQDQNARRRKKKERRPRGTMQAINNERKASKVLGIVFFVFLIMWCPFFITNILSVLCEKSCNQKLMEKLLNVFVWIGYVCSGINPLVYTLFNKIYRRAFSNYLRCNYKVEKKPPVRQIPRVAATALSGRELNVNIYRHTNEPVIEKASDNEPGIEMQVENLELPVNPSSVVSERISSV
# male Wistar rats = test: Novel object recognition model, scopolamine-induced memory impairment; format: in vivo, rat; conditions: for reversal of the memory impairment induced by scopolamine (discrimination index d2): 90 or 60 mins prior to scopolamine 0.1 mg/kg ip; for reversal of scopolamine-induced memory impairment (discrimination index d2): with scopolamine 0.1 mg/kg sc, 30 mins prior to re-release
# Method: Twenty-four 5-month-old male Wistar rats were used. The animals were housed individually in standard Makrolon cages on sawdust bedding in an air-conditioned room (about 20° C.). They were kept under a 12/12-hour light/dark cycle (lights on from 18.00 to 6.00 h) and had free access to food and water. Rats were housed and test in different rooms. A radio, which was playing softly, provided background noise in all rooms. All testing was done between 9.00 and 16.00 h.
# Scopolamine hydrobromide was prepared daily and dissolved in saline. […] (injection volume 1 ml/kg) 30 minutes before trial 1. Test compounds were prepared daily and dissolved in saline, and the pH was adjusted to pH 5-7 using (0.1 N) NaOH. The compounds were administered orally or i.p. over a range of doses to n=12-24 animals per dose (injection volume 1 ml/kg). Time of dosing prior to first trial (T1) can be chosen to match the expected plasma Cmax for the compound. Administration was always given i.p. (injection volume 1 ml/kg).
# The object recognition test was performed as described by Ennaceur and Delacour, Behav. Brain Res., 1988, 31, 47-59. This test measures the memory of an animal, by testing the ability of the animal to recognize that there is a new object in its environment. The apparatus consisted of a circular arena, 83 cm in diameter. Half of the 40 cm high wall was made of gray polyvinyl chloride, the other half of transparent polyvinyl chloride. The light intensity was equal in the different parts of the apparatus. Two objects were placed in a symmetrical position about 10 cm away from the gray wall. Each object was available in triplicate. Four different sets of objects were used: 1) a cone consisting of a gray polyvinyl chloride base (maximal diameter 18 cm) with a brass collar on top (total height 16 cm), 2) a standard 1 l transparent glass bottle (diameter 10 cm, height 22 cm) filled with sand, 3) a massive metal block (10.0×5.0×7.5 cm) with two holes (diameter 1.9 cm), and 4) a massive aluminum block with a tapering top (13.0×8.0×8.0 cm). A rat could not displace the objects. Fluorescent red tubes and a light bulb provided a constant illumination of about 20 lux on the floor of the apparatus.
# A testing session comprised two trials. The duration of each trial was 3 min. During the first trial (T1) the apparatus contained two identical objects (samples). A rat was always placed in the apparatus facing the wall at the middle of the front (transparent) segment. After the first exploration period the rat was put back in its home cage. Subsequently, after a predetermined delay interval, the rat was put back in the apparatus for the second trial (T2), but now with two dissimilar objects, a familiar one (the sample) and a new object. The times spent in exploring each object during T1 and T2 were recorded manually with a personal computer. “Exploration” was defined as directing the nose to the object at a distance of no more than 2 cm and/or touching the object with the nose. Sitting on the object was not considered as exploratory behavior. In order to avoid the presence of olfactory trails the objects were always thoroughly cleaned. […]
# Rats were treated with Compound 18 (0.3, 1, 3 mg/kg po) or Compound 3 (0.1, 0.3, 1 and 3 mg/kg i.p.) 90 or 60 mins prior to administration of scopolamine (0.1 mg/kg ip). The time each animal spent investigating the novel and familiar objects in the arena during a over a 3 min interval, commencing 30 minutes after the administration of scopolamine, was scored. […]
# human 5-HT6 = target: T3, human 5-HT6 (Homo sapiens, UniProt P50406); test: Competition binding with [3H]-LSD at membranes of HEK-293 cells expressing human 5-HT6; conditions: for Ki: [3H]-LSD, HEK293-h5-HT6 membranes, read-out: Receptor Affinity (pKi) 5-HT6 (converted)
# T3 construct: expressed in transfected cells; host or cells: HEK-293 (HEK293-h5-HT6)
# Method: All test and control compounds were dissolved in 100% DMSO at 10 mM and diluted as indicated in aqueous assay buffer. K1 values are presented at the mean and standard deviation of 3 separate determinations each consisting of the compound tested at each concentration in duplicate.
# human recombinant M1 = target: T4, human recombinant M1 (Homo sapiens, UniProt P11229); test: Binding affinity at Muscarinic M1 receptor; conditions: read-out: Receptor Affinity (pKi) Muscarinic M1 (converted)
# T4 sequence (P11229 1-460): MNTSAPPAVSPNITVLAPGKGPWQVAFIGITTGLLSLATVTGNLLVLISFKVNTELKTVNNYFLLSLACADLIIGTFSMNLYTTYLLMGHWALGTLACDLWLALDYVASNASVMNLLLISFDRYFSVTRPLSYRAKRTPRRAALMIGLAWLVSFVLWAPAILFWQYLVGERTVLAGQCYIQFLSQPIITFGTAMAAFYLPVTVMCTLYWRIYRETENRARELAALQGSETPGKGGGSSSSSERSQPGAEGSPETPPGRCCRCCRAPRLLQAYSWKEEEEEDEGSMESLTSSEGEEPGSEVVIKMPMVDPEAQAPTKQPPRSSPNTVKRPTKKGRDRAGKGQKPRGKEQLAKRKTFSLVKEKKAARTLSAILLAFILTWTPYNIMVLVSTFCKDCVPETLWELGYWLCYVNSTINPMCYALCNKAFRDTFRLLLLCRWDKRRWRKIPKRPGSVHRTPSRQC
# human recombinant M2 = target: T5, human recombinant M2 (Homo sapiens, UniProt P08172); test: Binding affinity at Muscarinic M2 receptor; conditions: read-out: Receptor Affinity (pKi) Muscarinic M2 (converted)
# T5 sequence (P08172 1-466): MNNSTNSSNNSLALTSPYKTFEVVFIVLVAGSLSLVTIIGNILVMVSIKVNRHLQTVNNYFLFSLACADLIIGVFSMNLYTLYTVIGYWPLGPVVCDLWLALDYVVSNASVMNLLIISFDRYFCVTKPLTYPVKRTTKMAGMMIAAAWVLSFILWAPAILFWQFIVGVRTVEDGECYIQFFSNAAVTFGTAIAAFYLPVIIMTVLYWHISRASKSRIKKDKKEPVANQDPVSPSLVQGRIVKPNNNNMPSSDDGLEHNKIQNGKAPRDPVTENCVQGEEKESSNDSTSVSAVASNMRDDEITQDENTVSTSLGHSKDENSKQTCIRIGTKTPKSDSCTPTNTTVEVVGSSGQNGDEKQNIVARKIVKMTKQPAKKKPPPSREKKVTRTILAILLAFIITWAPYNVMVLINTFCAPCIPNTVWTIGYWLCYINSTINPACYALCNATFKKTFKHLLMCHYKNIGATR
# [1] = target: human recombinant D2 receptor (Homo sapiens, UniProt P14416); test: Ligand binding affinity at Dopamine D2 receptor; conditions: read-out: Receptor Affinity (pKi) Dopamine D2 (converted)
# [2] = system: rat brain hippocampal slices (CA1 region); test: Long term potentiation in rat hippocampal slices (CA1), fEPSP; format: cell-based; conditions: weak tetanus 50 Hz, 500 ms; room temperature
# Sequence of human recombinant D2 receptor (P14416 whole entry): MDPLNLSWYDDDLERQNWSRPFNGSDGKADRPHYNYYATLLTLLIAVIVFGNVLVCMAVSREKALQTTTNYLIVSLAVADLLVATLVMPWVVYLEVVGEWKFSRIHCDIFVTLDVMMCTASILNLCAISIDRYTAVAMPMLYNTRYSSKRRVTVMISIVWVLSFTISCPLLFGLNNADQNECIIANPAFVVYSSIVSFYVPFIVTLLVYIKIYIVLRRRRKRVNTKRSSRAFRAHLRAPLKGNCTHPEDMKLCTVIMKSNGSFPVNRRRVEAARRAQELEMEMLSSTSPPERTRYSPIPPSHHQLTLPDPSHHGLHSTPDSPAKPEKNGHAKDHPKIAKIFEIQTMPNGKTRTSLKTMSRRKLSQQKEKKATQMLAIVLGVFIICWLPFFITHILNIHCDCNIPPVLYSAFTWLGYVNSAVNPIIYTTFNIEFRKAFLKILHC
# T1 sequence (P31389 whole entry): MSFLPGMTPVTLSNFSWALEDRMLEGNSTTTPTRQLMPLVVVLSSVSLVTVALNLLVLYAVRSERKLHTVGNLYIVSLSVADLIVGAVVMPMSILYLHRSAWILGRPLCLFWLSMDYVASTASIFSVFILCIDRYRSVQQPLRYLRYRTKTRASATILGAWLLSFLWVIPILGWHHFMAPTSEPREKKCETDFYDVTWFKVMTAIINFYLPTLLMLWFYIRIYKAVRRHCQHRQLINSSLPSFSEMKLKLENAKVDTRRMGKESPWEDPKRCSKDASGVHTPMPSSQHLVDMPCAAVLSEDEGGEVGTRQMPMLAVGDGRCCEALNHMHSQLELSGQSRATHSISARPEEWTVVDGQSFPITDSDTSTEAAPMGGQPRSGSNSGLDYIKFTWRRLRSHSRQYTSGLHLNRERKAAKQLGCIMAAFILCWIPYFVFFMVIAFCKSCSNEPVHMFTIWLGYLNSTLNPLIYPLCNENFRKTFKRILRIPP
# Sequence of human recombinant 5-HT2A (P28223 whole entry): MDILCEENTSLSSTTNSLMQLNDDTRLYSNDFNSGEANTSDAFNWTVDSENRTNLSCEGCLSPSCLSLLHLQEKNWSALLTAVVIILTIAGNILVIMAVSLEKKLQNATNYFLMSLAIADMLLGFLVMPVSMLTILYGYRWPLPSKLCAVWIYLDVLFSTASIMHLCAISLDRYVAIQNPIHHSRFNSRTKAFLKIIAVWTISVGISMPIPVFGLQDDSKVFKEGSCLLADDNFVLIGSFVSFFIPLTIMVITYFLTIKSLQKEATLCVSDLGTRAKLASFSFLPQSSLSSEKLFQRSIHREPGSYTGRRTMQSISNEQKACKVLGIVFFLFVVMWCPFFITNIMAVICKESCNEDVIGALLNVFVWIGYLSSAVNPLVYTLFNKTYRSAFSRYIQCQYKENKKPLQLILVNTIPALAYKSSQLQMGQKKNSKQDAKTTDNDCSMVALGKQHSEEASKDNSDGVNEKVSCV
# T3 sequence (P50406 whole entry): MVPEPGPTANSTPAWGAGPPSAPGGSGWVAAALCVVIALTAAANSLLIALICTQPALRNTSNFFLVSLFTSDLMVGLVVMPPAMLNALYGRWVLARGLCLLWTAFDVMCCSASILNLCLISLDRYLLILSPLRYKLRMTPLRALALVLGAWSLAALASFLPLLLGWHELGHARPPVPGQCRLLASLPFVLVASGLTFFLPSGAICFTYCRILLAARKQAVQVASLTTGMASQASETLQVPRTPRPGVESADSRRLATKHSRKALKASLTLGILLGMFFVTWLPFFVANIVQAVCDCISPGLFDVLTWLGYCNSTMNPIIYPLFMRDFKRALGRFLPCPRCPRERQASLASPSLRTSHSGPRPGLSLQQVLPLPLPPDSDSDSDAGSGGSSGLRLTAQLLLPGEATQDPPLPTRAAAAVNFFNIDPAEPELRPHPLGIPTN
SMILES,Ki (Histamine H1 receptor),Ki (human recombinant 5-HT2A),pKi (human recombinant 5-HT2C),reversal of the memory impairment induced by scopolamine (discrimination index d2) (male Wistar rats; 0.3 mg/kg po),reversal of the memory impairment induced by scopolamine (discrimination index d2) (male Wistar rats; 1 mg/kg po),pKi (human 5-HT6),Ki (human recombinant M1),Ki (human recombinant M2),Ki [1],reversal of the memory impairment induced by scopolamine (discrimination index d2) (male Wistar rats; 0.3 mg/kg i.p.),Ki (human recombinant 5-HT2C),"long term potentiation, increase in slope of fEPSP relative to pre-tetanus baseline [2]",reversal of scopolamine-induced memory impairment (discrimination index d2) (male Wistar rats; 0.3 mg/kg ip),Ki (human 5-HT6),reversal of scopolamine-induced memory impairment (discrimination index d2) (male Wistar rats; 3 mg/kg ip)
"O=C1NCc2c(N3CCNCC3)cccc2N1Cc1cccc(F)c1 [Compound 18, 1-(3-Fluoro-benzyl)-5-piperazin-1-yl-3,4-dihydro-1H-quinazolin-2-one]",> 1 µM,0.002 µM,7.20,statistically significant reversal,statistically significant reversal,9.20,> 1 µM,> 1 µM,> 1 µM,–,–,–,–,–,–
"O=C1COc2c(N3CCNCC3)cccc2N1Cc1ccccc1 [Compound 3, 4-benzyl-8-piperazin-1-yl-4H-benzo[1,4]oxazin-3-one]",> 1 µM,0.00126 µM,7.20,–,–,9.80,> 1 µM,> 1 µM,> 1 µM,statistically significant reversal,–,–,–,–,–
"O=c1[nH]c2c(N3CCNCC3)cccc2n1Cc1ccccc1 [Compound 64, 1-Benzyl-4-piperazin-1-yl-1,3-dihydro-benzoimidazol-2-one]",> 0.316 µM,0.0251 µM,–,–,–,9.60,0.2 µM,> 0.316 µM,> 1 µM,–,0.631 µM,–,–,–,–
"COc1cccc([C@H](O)C2CCN(CCc3ccc(F)cc3)CC2)c1OC [MDL-100907, R-α-(2,3-dimethoxyphenyl)-1-[2-(4-fluorophenyl)ethyl]-4-piperidinemethanol, reference compound]",–,–,–,–,–,–,–,–,–,–,–,Increase in long term potentiation,Statistically significant reversal,–,–
"CN(C)CCO/N=C(/C=C/c1ccc(O)cc1)c1ccccc1F [SR46349B, (1Z,2E)-1-(2-fluorophenyl)-3-(4-hydroxyphenyl)prop-2-en-1-one-O-(2-dimethylaminoethyl)oxime, reference compound]",> 1 µM,0.001 µM,7.00,–,–,–,> 0.316 µM,> 1 µM,> 1 µM,–,–,–,–,> 1 µM,–
"N=C(N)NCC1CCCc2cc(S(=O)(=O)c3ccccc3)ccc21 (stereo not drawn) [Compound 52, N-(6-Phenylsulfonyl-1,2,3,4-tetrahydro-naphthalen-1-ylmethyl)-guanidine]",> 1 µM,0.794 µM,–,–,–,–,> 1 µM,> 1 µM,> 1 µM,–,1 µM,–,–,0.00126 µM,–
"CN1CCN(c2cccc3c(S(=O)(=O)c4ccccc4)c[nH]c23)CC1 [Compound 32, 3-phenylsulfonyl-7-(4-methyl-piperazin-1-yl)-1H-indole]",> 0.316 µM,0.0794 µM,–,–,–,–,> 0.316 µM,> 0.316 µM,> 1 µM,–,0.158 µM,–,–,0.000316 µM,Statistically significant reversal
